Source: article PMC8002823, “Synthesis and Structure–Activity Relationships of Aristoyagonine Derivatives as Brd4 Bromodomain Inhibitors with X-ray Co-Crystal Research” (Molecules, 2021)
pIC50: −log10 of the molar value.

Key:
Brd4 bromodomain [1] = molecular target: T1, Brd4 bromodomain (Homo sapiens, UniProt O60885); experiment: Alpha-screen enzyme assay (bromodomain binding to acetylated histone peptide); details: for pIC50 / inhibitory activity against Brd4 bromodomain (in words): alpha-screen assay; for pIC50: inhibition of bromodomain binding activity, calculated with Prism6;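 on all read-outs here: AlphaScreen proximity readout pairing streptavidin donor beads with anti-GST acceptor beads, with hits checked against bead interference using a TruHit control kit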
T1 construct: glutathione-S-transferase (GST) and His-tagged bromodomain; made in house
Protocol: Bromodomain was prepared as previously described. […] Streptavidin-coated donor beads and anti-GST alpha-screen acceptor beads were added under low-light condition. […] The alpha-screen results were confirmed by using alpha-screen TruHit kits (PerkinElmer, USA).

Ty82 cells = experiment: Cell cytotoxic assay in Ty82 cells; assay type: cell-based; details: Homo sapiens; for CC50: Ty82 cell cytotoxic activity, 72 h; for pIC50: TY82, cell cytotoxic activity (Table 4 head prints IC50)
Protocol: (§1) For the viability experiments, Ty82 cells were seeded in 96-well plates at 30% confluency and exposed to chemicals the next day. After 72 h, WST-1 reagent was added, and absorbance at 450 nm was measured by using a Spectramax spectrophotometer (Molecular Devices, San Jose, CA, USA) in accordance with the manufacturer’s instructions. The CC50 values were calculated by using GraphPad Prism version 5 for Windows. The curves were fitted using a nonlinear regression model with a log (inhibitor) versus response formula.

c-MYC = experiment: Western blot of c-MYC level in NALM6 cells; assay type: cell-based; details: 18 h treatment
Protocol: For immunoblotting, cells were washed in PBS, lysed in 1× sample buffer (50 mmol/L Tris-HCl (pH 6.8), 10% glycerol, 2% SDS, and 3% β-mercaptoethanol), and boiled for 10 min. Lysates were subjected to SDS-PAGE followed by blotting with the indicated antibodies and detection by western blotting substrate ECL reagent (Thermo Fisher Scientific, Waltham, MA, USA). Images were produced using a SensiQ-2000 (Lugen Sci Co., Seoul, KOREA). The following antibodies were obtained from Cell Signaling Technology (Danvers, MA, USA): c-Myc (catalog no. 5605). Tubulin antibody (catalog no. T6199) was purchased from Sigma-Aldrich. HRP-conjugated anti-mouse (catalog no. NCI1430KR), and HRP-conjugated anti-rabbit (catalog no. NCI1460KR) antibodies were obtained from Thermo Scientific.

[2] = Cell cytotoxic assay in Ty82 cells; assay type: cell-based; details: human, Ty82 cells; Ty82 cell cytotoxic activity, 72 h
Protocol: as §1

Brd4 bromodomain [3] = test system: Brd4 bromodomain; design: method as in PMID 29928885; details: cited from earlier work

Row | SMILES | pIC50 (Brd4 bromodomain [1]) | melting point [°C] | increase in activity compared with 8ba (Brd4 bromodomain [1]; Brd4 IC50 ratio) [fold] | CC50 (Ty82 cells) [µM] | c-MYC level (c-MYC) | inhibitory activity against Brd4 bromodomain (in words) (Brd4 bromodomain [1]) | CC50 at 72 h [2] [µM] | inhibition of binding of Brd4 bromodomain to acetylated histone peptide (in words) (Brd4 bromodomain [3]) | pIC50 (Ty82 cells)
1 | CCN(CC)c1ccc2c3c1Oc1ccc(OCC(C)C)cc1C=C3N(C)C2=O [Compound 8ca] | < 4.49 | 183 to 185 |  |  |  | no inhibitory activity | > 20 |  | 
2 | COc1ccc2c(c1OC)Oc1c(OC)ccc3c1C(=C2)N(C)C3=O [aristoyagonine] |  |  |  |  |  |  |  | efficiently inhibited | 
3 | CCN(CC)CCOc1ccc2c(c1)C=C1c3c(ccc(OC)c3O2)C(=O)N1C [Compound 8be, 9-(2-(Diethylamino)ethoxy)-5-methoxy-1-methylbenzo[6,7]oxepino[4,3,2-cd]isoindol-2(1H)-one] | 6.07 | 174 to 176 |  | 0.56 |  |  |  |  | 
4 | COc1ccc2c(c1OCCCOc1ccccc1)Oc1c(OC)ccc3c1C(=C2)N(C)C3=O [Compound 8ad, 5,8-Dimethoxy-1-methyl-7-(3-phenoxypropoxy)benzo[6,7]oxepino[4,3,2-cd]isoindol-2(1H)-one] | 5.15 | 189 to 191 |  | > 4 |  |  |  |  | 
5 | COc1ccc2c(c1)C=C1c3c(ccc(OC)c3O2)C(=O)N1C [Compound 8bc, 5,9-Dimethoxy-1-methylbenzo[6,7]oxepino[4,3,2-cd]isoindol-2(1H)-one] | 6.39 | 194 to 196 | 40 | 0.66 | significantly decreased |  |  |  | 

Continued, in another order:

Row | pIC50 (Brd4 bromodomain [1]) | melting point [°C] | increase in activity compared with 8ba (Brd4 bromodomain [1]; Brd4 IC50 ratio) [fold] | SMILES | CC50 (Ty82 cells) [µM] | c-MYC level (c-MYC) | inhibitory activity against Brd4 bromodomain (in words) (Brd4 bromodomain [1]) | CC50 at 72 h [2] [µM] | inhibition of binding of Brd4 bromodomain to acetylated histone peptide (in words) (Brd4 bromodomain [3]) | pIC50 (Ty82 cells)
6 | 6.07 | 214 to 216 |  | CCOc1ccc2c3c1Oc1ccc(OC)cc1C=C3N(C)C2=O [Compound 8bk, 5-Ethoxy-9-methoxy-1-methylbenzo[6,7]oxepino[4,3,2-cd]isoindol-2(1H)-one] | 0.49 | significantly decreased |  |  |  | 
7 | 6.17 | 188 to 190 |  | CCOc1ccc2c3c1Oc1ccc(OCc4ccccn4)cc1C=C3N(C)C2=O [Compound 8bn, 5-Ethoxy-1-methyl-9-(pyridine-2-ylmethoxy)benzo[6,7]oxepino[4,3,2-cd]isoindol-2(1H)-one] | 0.36 |  |  |  |  | 
8 | 5.05 | 203 to 205 |  | CCCc1ccc2c3c1Oc1ccc(OCc4ccccc4)cc1C=C3N(C)C2=O [Compound 8dd, 9-(Benzyloxy)-1-methyl-5-propylbenzo[6,7]oxepino[4,3,2-cd]isoindol-2(1H)-one] |  |  |  |  |  | 5.00
9 | < 4.49 | 239 to 241 |  | CCCc1ccc2c3c1Oc1ccc(C(F)(F)F)cc1C=C3N(C)C2=O [Compound 8db, 1-Methyl-5-propyl-9-(trifluoromethyl)benzo[6,7]oxepino[4,3,2-cd]isoindol-2(1H)-one] |  |  |  |  |  | < 4.70
10 | 5.31 | 181 to 183 |  | CCN(CC)c1ccc2c3c1Oc1ccc(O)cc1C=C3N(C)C2=O [Compound 8cb, 5-(Diethylamino)-9-hydroxy-1-methylbenzo[6,7]oxepino[4,3,2-cd]isoindol-2(1H)-one] | 8 |  | weaker inhibitory effects than 8bd and 8bl |  |  | 
